Results published in EP1013664A1, “Antigenic determinants for drug-specific T lymphocytes from drug-allergic patients” (Max-Planck-Gesellschaft zur Förderung der Wissenschaften …, priority 1998, dated 2000).

What was measured:
clone BAM25 = assay: Cytokine measurement in culture supernatants of clone BAM25; assay type: cell-based, human; details: for cytokine response to the derivative alone: without Pen G
clone ES5.13 = assay: Cytokine measurement in culture supernatants of clone ES5.13; assay type: cell-based, human; details: for interference on Pen G-induced IL2 secretion: added together with 0.25 mg/ml of Pen G; for cytokine response to the derivative alone: without Pen G
Procedure: (§1) For cytokine measurement, 10^5 T cells and 5 x 10^4 autologous, irradiated EBV-B cells were mixed in 200 µl of complete RPMI-FCS medium containing appropriate Ag concentration. After overnight incubation, supernatants were collected and tested for the concentration of IL2, IFNγ and IL4. IL2 was quantified on a IL2-dependent CTLL line. IFNγ was measured by a sandwich ELISA as described (12). IL-4 was measured using the Duo-Set ELISA kit provided by Genzyme Diagnostics, Cambridge, MA. Eventually, cells were kept in culture for another 24 h and cellular proliferation was measured by thymidine uptake as described above.
In a first set of experiments we studied the effect of the Pen V and Amp derivatives on the T cell phenotype induced by Pen G on two hapten-specific CD4^+ cell clones.

[1] = test system: tetanus toxoid-specific T cell clone 1ES4; assay type: cell-based, human
[2] = test system: PBMC from donors allergic to β-lactams; assay: Proliferative response of primary PBMC cultures to Pen G (3H-thymidine incorporation); assay type: cell-based, human; details: 5 days incubation
Procedure: (§2) Cells at a concentration of 3 x 10^5/w were stimulated with 3-fold dilutions of Pen G from 3 mg/ml to 0.1 µg/ml. After 5 days incubation at 37°C in 5% CO2, the proliferative response was determined, in one of the plates, as the ^3H-thymidine incorporation after 16 h incubation with […] = 37 kBq ^3H-thymidine (Dupont, Boston, MA). Cells were harvested on GF/A-filters (Dunn Labortechnik GmbH, Asbach, Germany) and the incorporation was measured in an automatic β-counter (Inotech, Asbach, Germany). The second plate was further expanded in IL2-containing medium for 4 days. Cells were then pooled for any given Pen G concentration, washed and rested in the absence of IL2. After another 4 days, cells were harvested and analysed for TCR expression by cell surface staining and IL4/IFNγ production by intracellular staining.
Patients BAM, CAS and ES participating to this study developed allergic reactions after treatment with β-lactam antibiotics and their clinical data are summarized in Table I. At the time of diagnosis they all presented different symptoms after treatment with β-lactams as well as positive LTT in vitro (Table I; ref. 2, 4 and data not shown). […] After 5 days of incubation, the proliferative response was measured in one of the cultures by thymidine incorporation. […] The intensity of the response was dose-dependent, with maximal proliferation at 0.3 mg/ml of Pen G.

[3] = test system: PBMC from donors allergic to β-lactams; assay: Flow cytometric analysis of intracellular IFNγ and IL4 production in Pen G-stimulated PBMC cultures; assay type: cell-based, human; details: restimulated with PMA and ionomycin, intracellular staining
Procedure: as §2
Intracellular staining for cytokines was performed following the protocol described by Murphy et al. (12), with few modifications. […] Samples were resuspended in PBS/BSA and analyzed on a FACScan flow cytometer (Becton Dickinson & Co.). […] Results were analyzed using Cellquest software. T cells were detected by standard surface staining using the PE-conjugated anti human TCRαβ antibody (Clone BMA03, Immunotech, Marseille, France). […]

[4] = test system: Pen G-specific T cell clones; assay: Proliferation and IL4/IFNγ secretion of a panel of T cell clones at different Pen G doses; assay type: cell-based, human
Procedure: T cell clones were generated from Pen G specific T cell lines. Freshly isolated PBMC were stimulated with 1, 0.3, 0.1 mg/ml of Pen G at a density of 2 x 10^5 cells/well in a final volume of 200 µl of complete RPMI containing 5 % HS in 96-well flat bottom culture plates. After 5 days at 37°C and 5 % CO2, 25 U/ml of IL2 was added to the wells. After another 4 days the cultures were pooled, rested for 3 days in the absence of IL2 and subjected to a second round of restimulation using irradiated autologous PBMC as APC and the same dose of Pen G given during the first restimulation. After 3 days the different cultures were again expanded in IL2 containing medium and then cloned by limiting dilution. T cell blasts were seeded at 0.3 cells/well in Terasaki plates (Nunc, Roskilde, Denmark) in the presence of 1 µg/ml PHA and 10^4 irradiated allogeneic PBMC in complete RPMI medium containing 5 % HS and 250 U/ml IL-2. The T cell clones obtained were maintained in culture by periodic stimulation in the presence of irradiated allogeneic PBMC, PHA and IL2.
as §1
In order to evaluate the role of Pen G doses in inducing functional differentiation of established T lymphocytes, a panel of independent Pen G-specific T cell clones was prepared. PBMC from donors two were subjected to two rounds of stimulation, in vitro, with Pen G at concentrations of 1, 0.3 and 0.1 mg/ml in three independent T cell lines. After expansion in IL2-containing medium, each line was independently cloned by limiting dilution. A total of 18 Pen G-specific T cell clones were obtained from donor two and 24 from donor one. The hapten-specific T cell phenotype was induced stimulating each T cell clone with 3-fold dilution of Pen G, from 3 mg/ml to 0.03 mg/ml concentration, in the presence of irradiated autologous EBV-B cells. After 24 h incubation, supernatants were harvested and processed for cytokine measurement, while cells were kept in culture for another 24 h and T cell proliferation was measured by thymidine uptake. We then examined IL4 and IFNγ secretion induced in the presence of the highest and lowest Pen G dose able to trigger cellular proliferation, considering SI values ≥ 2.0 as positive response.

mouse Th1 cells = details: through specific inhibition of p38 MAP kinases; cited from earlier work
[5] = added together with 0.25 mg/ml of Pen G, 24 h
[6] = high concentration, together with 0.25 mg/ml of Pen G
[7] = 0.25 mg/ml of Pen G only, 24 h incubation

CC1(C)S[C@@H]2[C@H](NC(=O)[C@H](N)c3ccccc3)C(=O)N2[C@H]1C(=O)O [Amp, Ampicillin]
effect on the Pen G-induced cytokine pattern (clone BAM25; [5]): did not affect
effect on IFNγ secretion (clone BAM25; [6]): slight reduction
cytokine response to the derivative alone (clone BAM25): None of them responded
interference on Pen G-induced IL2 secretion (clone ES5.13): no interference
cytokine response to the derivative alone (clone ES5.13): None of them responded
effect on cytokine secretion [1]: no effect

CC1(C)S[C@@H]2[C@H](NC(=O)Cc3ccccc3)C(=O)N2[C@H]1C(=O)O [Pen G, Penicillin G]
Pen G concentration of maximal proliferation [2]: 0.3 mg/mL
cells expanded upon in vitro stimulation [3]: mainly IL4^+ and IL4^+IFNγ^+ cells are expanded
lowest doses capable of triggering cellular proliferation ([4]; clones from donor one, SI ≥ 2.0 as positive response): ≥ 0.3 mg/mL
dose at which clones could secrete IL4 ([4]; clones from donor one, only at the highest dose tested): 3 mg/mL
clones in which lower concentration induced higher level of IFNγ secretion ([4]; clones from donor two): 14 of the 18
clones able to shift from type 0 to type 1 responses ([4]; clones from donor two, number of clones): 5
lowest dose capable of triggering cellular proliferation ([4]; clones from donor two, SI ≥ 2.0 as positive response): 0.03 mg/mL
clones able to shift their phenotype from type 0 to type 1 ([4]; clones isolated from donor two): 35%
IFNγ (100% value) (clone BAM25; [7]): 6637 pg/mL
IL2 (100% value) (clone BAM25; [7]): 80.5 SI of CTLL cells
IL4 (100% value) (clone BAM25; [7]): 5788 pg/mL
cytokine pattern (clone BAM25; Pen G 1 mg/ml, behaved as a Th2 clone): secreting IL4 but not IFNγ
IL2 (100% value) (clone ES5.13; [7]): 40.3 SI
IL4 (100% value) (clone ES5.13; [7]): 5414 pg/mL

CC1(C)S[C@@H]2[C@H](NC(=O)COc3ccccc3)C(=O)N2[C@H]1C(=O)O [Pen V, Penicillin V]
concentrations at which IFNγ production is completely abrogated (clone BAM25; [5]): ≥ 0.1 mg/mL
effect on IL4 secretion (clone BAM25; [5]): without affecting IL4 secretion
reduction of the amount of IL2 (clone BAM25; [5]): about 50%
cytokine response to the derivative alone (clone BAM25): None of them responded
interference on Pen G-induced IL2 secretion (clone ES5.13): no interference
effect on IL4 production (clone ES5.13; [6]): only a marginal reduction
cytokine response to the derivative alone (clone ES5.13): None of them responded
concentration at which IFNγ secretion is completely abrogated [1]: ≥ 0.1 mg/mL
effect on IL2 production [1]: unaffected

C[S+]([O-])c1ccc(-c2nc(-c3ccncc3)c(-c3ccc(F)cc3)[nH]2)cc1 (stereo not drawn) [SB203580]
effect on IFNγ (mouse Th1 cells): selectively induces IFNγ downmodulation
